According to patent US10098352B2, “Honeybee repellents and uses thereof” (Inscent, Inc., priority 2011, dated 2018):

Columns and labels:
[1] = tested on: Apis mellifera Carniolan foraging worker honeybees; test: Choice test in free-flight box apparatus; format: in vivo; settings: for Repellence Score: amount 0.5%, percent food-weight change vs corresponding dishes in preceding test, negative = increase in food consumption
Procedure: To determine whether living honeybees will choice to move towards a source of a candidate compound, these compounds were assayed using a choice test in a free-flight box apparatus.
All tests were done in a free-flight box apparatus. The apparatus comprises a 244 cm long×46 cm deep×30 cm high clear plastic box including two equally-sized independent testing chambers, each with 10 cm diameter air inlets that admit filtered room air, separated by a smaller central chamber with a screened air outlet to each testing chamber. Air can be pulled through the sealed box via a 10 cm diameter duct from the air outlet using an AQE Fume Fighter 500 fume extractor (BPA Air Quality Solutions, LLC, Charleston, S.C.), which removes the test odors using activated charcoal and HEPA filters. The box is housed in an environmentally controlled room with overhead illumination timed to correspond to the current ambient light cycle including 2 additional sets of lights timed to approximate crepuscular lighting conditions. The bottom of the apparatus was lined with clean absorbent paper marked with a 4×9 grid pattern, forming 12 cm×12 cm squares with marked coordinates.
Apis mellifera Carniolan foraging worker honeybees were obtained from a local apiary (typically 60 bees per shipment). Thirty honeybees were put into each testing chamber and were allowed to acclimate for 24 hours with food and water freely available.
At the beginning of each test day all food was removed from the test chamber, but water was continually available throughout all tests. For each test, approximately 0.3 g of organic, raw orange blossom honey was added to each clean small plastic weigh boat (Cole-Palmer). The honey boats were placed in small plastic culture dishes, which were distributed in the marked squares in the chambers. The positions of the dishes on the grid for a set of trials was chosen to avoid the bees' preferred resting area so that they had to find the food actively, but the same dish positions were maintained for a given set of trials. […] The honey in each boat was weighed on an analytical balance before and after the test, with the screened sample as a control for evaporative loss. The fume extractor was left off during the experimental trails, and was turned on to clear the air after the test dishes were covered and removed from the chamber at the end of each trial.
Based on the observation that bees tend to return to dishes in the same position where they have fed before, each set of trials with each group of bees began with “Pattern Identification” tests to see which dishes lose the most weight, reflecting the most feeding. Once bees were consuming an acceptable amount in 10-15 min, typically in 1-2 trials, we began a set of test compound trials. The test compound was pipetted onto pieces of filter paper placed on the dish bottom below the boat containing a fresh, weighed honey sample so that the test compound was inaccessible to the bees. We used 2 μL of a candidate compound at a concentration of 0.05-0.5%, in Triton X-100 or paraffin oil, on each of four pieces of filter paper per dish. The test-solution dishes were set at the same positions as the one or two dishes favored in the preceding Pattern Identification trial. To eliminate interference from the solvent, the other dishes without the test substance contained the same volume of the appropriate solvent on filter papers as the test solution dishes. The bees were allowed to feed for 10-15 minutes. Bee movements were recorded by a small, wide-angle digital video camcorder (HD Hero 960; GoPro, Halfmoon Bay, Calif.) placed on a tripod in front of the test chamber. The bees were given a brief rest while the honey was weighed and a second test was begun with fresh dishes, except that the test compound-containing dish or dishes were placed at whichever positions were most visited in the preceding test. […] The bees were then rested for 1-3 hours and a subsequent set of trials begun with another Pattern Identification. […]

[2] = cited from earlier work
[3] = tested on: Apis mellifera Carniolan foraging worker honeybees; test: Proboscis extension response (PER) assay in bees conditioned to 2-heptanone; format: in vivo; settings: final compound concentration 0.5% (TRITON X-100/water), 4 s exposure; only bees PER-positive to 2-heptanone and negative to controls counted
Procedure: To determine whether a living honeybee can recognize a candidate compound, these compounds were tested using a proboscis extension response (PER) assay using classical conditioning approaches. Proboscis extension response conditioning is a case of appetitive learning, in which bees learn to associate odor stimuli with sucrose reward in the laboratory. In this case, bees were conditioned to produce a PER to 2-heptanone as the conditioned stimulus and a sugar reward as the unconditioned stimulus. These trained bees were then exposed to an odor pulse of a candidate compound to test whether a candidate compound would also produce a PER. If the candidate compound “mimics” 2-heptanone then the honeybee will extend its proboscis.
For conditioning procedures, Apis mellifera Carniolan foraging worker honeybees were obtained from a local apiary (typically 60 bees per shipment). The honeybees were held overnight in insect cages with food and water freely available, in an environmentally controlled room on a light cycle similar to the ambient cycle at the time of the assay.
For conditioning procedures, all tests were done in an odorant delivery apparatus set inside a fume hood. The apparatus comprised a set of open-ended, horizontal, 3 cm diameter by 10 cm long plastic tubes. Each tube was designed where a honeybee could be positioned at the distal end of a tube, with the opening at the other end of the tube located proximal to an inlet of the fume hood. To deliver an odorant, room air was pumped by a diaphragm pump through a particle filter via 0.25 inch plastic tubing at approximately 0.7 m/sec. The air flow passes into the headspace above an odorant (0.5% [v/v]2-heptanone dissolved in odorless light paraffin oil) contained in a 100 mL bottle. The headspace air then passes through another plastic tube to a manifold of 4-way valves, each of which was attached near the proximal end of a plastic tube containing a bee. Each bee was exposed separately for a desired time period to the odorant by opening and closing the appropriate valve. When each valve was closed, the odor was flushed away immediately by the continuous fume hood air stream.
To train a honeybee to respond to a conditioned and unconditioned stimuli, bees were placed, without anesthesia, in individual 1.5 mL micro-centrifuge holding tubes and held overnight without access to food or water. The holding tubes containing the starved bees were placed in racks in groups of eight. One rack at a time was placed behind the odorant delivery apparatus so that each bee's head is centered at the distal end of a horizontal plastic tube. Each bee was exposed to the 2-heptanone odorant alone for four seconds, and then while being fed an 80% sucrose solution for and additional three seconds. The sucrose solution was delivered on a piece of saturated filter paper held in forceps. […] Positive and negative responses were recorded. A positive PER was scored when a bee extended its proboscis before the sucrose appeared. In a typical trial, 48 individual bees were subjected to conditioning. Six rounds of training were done before testing began, and typically a majority of the bees were successfully conditioned by the second or third round of training.
After conditioning, honeybees were tested with the candidate compounds the same day or on the following day or, most commonly, both. When held overnight, bees were fed with sucrose and kept in their holding tubes. When tested the day after training, bees were given one or more rounds of conditioning with 2-heptatone to refresh their memories. Candidate compounds stocks were made at 5% (w/v) in polyoxyethylene octyl phenyl ether (TRITON® X-100), a non-ionic detergent/surfactant, and stored at 4° C. This detergent is similar to substances used as carriers for a variety of commercial pest-control agents, can act as a solvent for both hydrophilic and hydrophobic substances, and is itself nearly odorless. […]

[4] = tested on: OBP2; test: Fluorescent-quench ligand-protein-binding assay (OBP2 binding screen); design: species or system Apis mellifera
Excerpt: To identify a honeybee repellent disclosed herein, candidate compounds were screened based upon the fact that 2-heptanone is an established repellent of bees. 2-heptanone is thought to mediate its behavioral response through binding to a specific odorant-binding protein called OBP2. Therefore compounds that bind OBP2 have the potential to act as odor “mimics” of 2-heptanone. By utilizing a fluorescent-quench, ligand-protein-binding assay, 30,000 compounds from the DIVERSET® library (ChemBridge Corp., San Diego, Calif.), a chemical library, were screened and over 150 candidate compounds were isolated that bind OBP2 (Table 1). Such assays are generally known in the art. See, e.g., Briand, et al., Ligand-Binding Properties and Structural Characterization of a Novel Rat Odorant-Binding Protein Variant, Eur. J. Biochem. 267(10): 3079-3089 (2000); Briand, et al., Ligand Binding and Physico-Chemical Properties of ASP2, A Recombinant Odorant-Binding Protein From Honeybee (Apis mellifera L.), Eur. J. Biochem. 268(3): 752-760 (2001); Briand, et al., Characterization of a Chemosensory Protein (ASP3c) from Honeybee (Apis mellifera L.) as a Brood Pheromone Carrier, Eur. J. Biochem. 269(18): 4586-4596 (2002), each of which is hereby incorporated by reference in its entirety.

Compound | Repellence Score [1] [%] | solubility in alcohol or ether ([2]; alcohol or ether) | solubility in water ([2]; water) | 2-heptanone positive bees testing positive to compound [3] [%] | OBP2 binding characteristic of compound [4] | Repellent or attractant effect in choice test (in words) ([1]; reduction of feeding at dishes most visited in preceding test)
CCCCCC(C)=O [2-heptanone] | 54.6 | soluble | very slightly soluble |  |  | 
O=C(NNC1=C(C(=O)C(F)(F)F)CCC1)c1ccc(Br)cc1 [compound 36] | 56.3 |  |  | 24.3 | Moderate (Moderate, indicates that 50% or less of the compound bound to OBP2.) | 
O=C(Nc1ccccc1C(=O)Nc1ccccc1Cl)c1ccccc1 [compound 10, 2-(benzoylamino)-N-(2-chlorophenyl)benzamide] | 45.6 |  |  | 4.8 | Moderate (Moderate, indicates that 50% or less of the compound bound to OBP2.) | 
O=C1OC(c2ccccc2)=NC1=Cc1cccs1 [compound 9, 2-phenyl-4-(2-thienylmethylene)-1,3-oxazol-5(4H)-one] | 43.3 |  |  | 9.7 | Moderate (Moderate, indicates that 50% or less of the compound bound to OBP2.) | 
Cc1cc(C)c2c(N)c(C(=O)c3ccc(Cl)cc3)sc2n1 [compound 8, (3-amino-4,6-dimethylthieno[2,3-b]pyridin-2-yl)(4-chlorophenyl)methanone] | −10.7 |  |  | 14.4 | Moderate (Moderate, indicates that 50% or less of the compound bound to OBP2.) | slightly attractive
